According to US8829014B2, “Thiazole and thiophene analogues, and their use in treating autoimmune diseases and cancers” (Board of Supervisors of Louisiana State University and …, priority 2006, dated 2014):

What was measured:
carageenan-induced edema = experiment: Carrageenan-induced rat paw edema test (anti-inflammatory activity); format: in vivo, Sprague-Dawley rats; design: % Protection: concentration or dose not given beside the values; settings: carrageenan-induced rat paw edema, defined in Example 397; for inhibition in vivo at 50 mg/kg: Rattus norvegicus, po, 3 h, read-out: % Protection
How it was run: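 Sprague-Dawley rats (male and female, 150-250 g), fasted 18 h, given compound orally at 50 mg/kg in 0.1% sodium CMC (alternatively i.v., s.c. or i.p.). 1% carrageenan injected sub-plantar in right hind paw 1 h later. Paw displacement read again 3 h later; % protection = [(Control−Test)/Control]×100 versus saline control.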

AP-1 = AP-1 inhibitor screen: basal AP-1-dependent luciferase expression in HEK/AP-1 cell line; format: cell-based; settings: 1 uM, determined as described in Example 398; for inhibition at 1 µM: AP1
Source text: (§1) Development of NF-κB and AP-1 Screens: Two HEK293 cell lines were purchased from Panomics. One cell line was stably transfected with a plasmid in which luciferase expression is regulated by six copies of the NF-κB transcriptional element (5′-[…]-3′); and the other cell line was stably transfected with a plasmid in which luciferase expression is regulated by three copies of the AP-1 transcriptional element (TGACTAA). To test the biological activity of the promoters, the HEK/NF-κB cell line was stimulated with TNF-α (20 ng/ml) for 24 hours, and the HEK/AP-1 cell line was stimulated with PMA (10 ng/ml) for 24 hours.
HEK cells were stably transfected with a plasmid expressing luciferase under the control of the AP-1 promoter. The transfected cells were plated on a 96-well plate for 24 hr. Then 1.0 μM of each compound in DMSO (0.3%) was added to triplicate wells and incubated for 48 hr. DMSO (0.3%) was added to one set of triplicate wells as a control. Luciferase activity was determined using Promega's Brite-Glo kit, and the mean for each sample was normalized to that for DMSO.
Screening was carried out as described above, monitoring the compounds' effects on basal AP-1-dependent luciferase expression. Each dose-response experiment was carried out in triplicate and repeated between two and four times.

NF-κB = NF-κB inhibitor screen: basal NF-κB-dependent luciferase expression in HEK/NF-κB cell line; format: cell-based; settings: for inhibition at 1 µM: read-out: NFkB inhibition @ 1 uM
Source text: as §1, with “hours. […] In addition, a pyrimidine carboxyimide that had previously been shown (ref. 58) to be an inhibitor of transcription mediated by NF-κB and AP-1 reduced luciferase activity by approximately 40% in each of the NF-κB and AP-1 cell lines.” for “hours.”
The above two assays analyzed the effects of the compounds on post-transcriptional gene regulation, which is known to play a key role in cancer and inflammation. By contrast, the NF-κB assay and the following assay (AP-1) test whether the compounds act at the transcriptional level. Thirty-nine representative compounds were screened in an HEK/NF-κB cell line. HEK cells were stably transfected with a plasmid expressing luciferase under the control of the NF-κB promoter. These transfected cells were plated on a 96-well plate. As above, initial screening was carried out at 1.0 μM by adding compound in DMSO (0.3%) twenty-four hours after plating. Each compound was added to each of triplicate wells. DMSO (0.3%) was added to one set of wells as a control. Luciferase activity was determined using Promega's Brite-Glo kit, and the mean for each sample was normalized to that for DMSO.
The fourteen representative compounds identified in the eIF4E screen as interesting (Numbered 2, 3, 4, 6, 8, 11, 15, 20, 21, 24, 25, 32, 33, and 35) were then tested for luciferase activity in a six-point dose response (10 nM, 33 nM, 100 nM, 330 nM, 1000 nM, and 3300 nM). Screening was carried out as described above by monitoring the effects of the compounds on basal NF-κB-dependent luciferase expression. Each dose was used out in triplicate, and repeated between two and four times. Results were normalized by the average expression level at the lowest concentration level, as described above.

[1] = 1 uM, determined as described in Example 398

melting point	Compound	inhibition in vivo at 50 mg/kg (carageenan-induced edema)	inhibition at 1 µM (AP-1)	inhibition at 1 µM (NF-κB; [1])	further results
> 275 °C	Cc1ccc(-n2c(-c3sc(NC(=O)c4ccccc4)nc3-c3ccccc3)nc3ccccc3c2=O)cc1 [Example 197, N-[5-(4-Oxo-3-p-tolyl-3,4-dihydro-quinazolin-2-yl)-4-phenyl-thiazole-2-yl]benzamide]				
198 to 199 °C	Cc1nc(NC(=O)c2ccco2)sc1C(=O)c1sc(NC(=O)c2ccco2)nc1C [Example 122, Bis-[2-(2-Furoyl-amino)-4-methyl-thiazole-5-yl]-methanone]				
228 to 230 °C	COC(=O)Nc1nc(-c2ccccc2)c(-c2nc3ccccc3c(=O)n2-c2ccccc2OC)s1 [Example 204, [5-(4-Oxo-3-(2-methoxyphenyl)-3,4-dihydro-quinazolin-2-yl)-4-phenyl-thiazol-2-yl]-carbamic acid methyl ester]				
265 to 266 °C	COc1ccc(-n2c(-c3sc(Nc4ccccc4)nc3C)nc3ccccc3c2=O)cc1 [Example 216, 2-(4-Methyl-2-phenylamino-thiazol-5-yl)-3-(4-methoxyphenyl)-3H-quinazolin-4-one]				
145 to 147 °C	Cc1cnc(-c2cc(-c3ccccc3)c(N3CCOCC3)s2)cc1OCC(F)(F)F [Example 41, 4-{5-[5-Methyl-4-(2,2,2-trifluoro-ethoxy)-pyridine-2-yl]-3-phenyl-thiophene-2-yl}-morpholine]				
164 to 165 °C	COc1ccc(-n2c(-c3cc(-c4ccccc4)c(N4CCOCC4)s3)nc3ccccc3c2=O)cc1 [Example 301, 3-(4-Methoxy-phenyl)-2-(5-morpholin-4-yl-4-phenyl-thiophen-2-yl)-3H-quinazolin-4-one]				
220 to 225 °C	CNc1nc(-c2ccccc2)c(-c2nc3ccccc3c(=O)n2-c2ccccc2C)s1 [Example 173, 2-(2-methylamino-4-phenyl-thiazol-5-yl)-3-o-tolyl-3H-quinazolin-4-one]				
232 to 234 °C	COC(=O)Nc1nc(C)c(-c2nc3ccccc3c(=O)n2-c2ccc(C(C)=O)cc2)s1 [Example 260, (4-Methyl-5-(4-oxo-3-(4-acetyl-phenyl)-3,4-dihydro-quinazolin-2-yl)-thiazol-2-yl)-carbamic acid methyl ester]				
217 to 218 °C	COc1ccc(-n2c(-c3cc(-c4ccc(Cl)cc4)c(N4CCOCC4)s3)nc3ccccc3c2=O)cc1 [Example 302, 2-[4-(4-Chloro-phenyl)-5-morpholin-4-yl-thiophene-2-yl]-3-(4-methoxy-phenyl)-3H-quinazolin-4-one]				
268 to 269 °C	COC(=O)Nc1nc(-c2ccccc2)c(-c2nc3ccccc3c(=O)n2-c2cccc(C)c2)s1 [Example 185, [5-(4-Oxo-3-m-tolyl-3,4-dihydro-quinazolin-2-yl)-4-phenyl-thiazol-2-yl]-carbamic acid methyl ester]				
204 to 205 °C	CCOC(=O)Nc1nc(-c2ccccc2)c(-c2nc3ccccc3c(=O)n2-c2cccc(OC)c2)s1 [Example 212, [5-(4-Oxo-3-(3-methoxyphenyl)-3,4-dihydro-quinazolin-2-yl)-4-phenyl-thiazol-2-yl]-carbamic acid ethyl ester]				
	CCOC(=O)Nc1nc(C)c(-c2nc3ccccc3c(=O)n2-c2ccc(Cl)cc2)s1 [Example 242, (4-Methyl-5-(4-oxo-3-(4-chloro-phenyl)-3,4-dihydro-quinazolin-2-yl)-thiazol-2-yl)-carbamic acid ethyl ester]	65%	12%	53%	inhibition of basal NF-κB-dependent luciferase expression (NF-κB; 3.3 μM (FIG. 12)): about 50%
	CCOC(=O)Nc1nc(C)c(-c2nc3ccccc3c(=O)n2-c2ccccc2)s1 [Example 154, (4-Methyl-5-(4-oxo-3-phenyl-3,4-dihydro-quinazolin-2-yl)-thiazol-2-yl)-carbamic acid ethyl ester]	12%	-13%	19%	
	Cc1nc(Nc2ccccc2)sc1-c1nc2ccccc2c(=O)n1-c1ccccc1 [Example 157, 2-(4-Methyl-2-phenylamino-thiazol-5-yl)-3-phenyl-3H-quinazolin-4-one]	12%	16%	25%	
	CCOC(=O)Nc1nc(-c2ccccc2)c(-c2nc3ccccc3c(=O)n2-c2ccc(Cl)cc2)s1 [Example 249, [5-(4-Oxo-3-(4-Chloro-phenyl)-3,4-dihydro-quinazolin-2-yl)-4-phenyl-thiazol-2-yl]-carbamic acid ethyl ester]	81%	0%	16%	
	O=C(Nc1nc(-c2ccccc2)c(-c2nc3ccccc3c(=O)n2-c2ccc(Cl)cc2)s1)c1ccccc1 [Example 253, N-[5-(4-Oxo-3-(4-Chloro-phenyl)-3,4-dihydro-quinazolin-2-yl)-4-phenyl-thiazole-2-yl]benzamide]	83%	28%	87%	
	CCOC(=O)Nc1nc(-c2ccccc2)c(-c2nc3ccccc3c(=O)n2-c2ccc(OC)cc2)s1 [Example 218, [5-(4-Oxo-3-(4-methoxyphenyl)-3,4-dihydro-quinazolin-2-yl)-4-phenyl-thiazol-2-yl]-carbamic acid ethyl ester]	20%	24%	22%	
	Cc1nc(Nc2ccc(Cl)cc2)sc1-c1nc2ccccc2c(=O)n1-c1ccccc1 [Example 158, 2-[2-(4-Chlorophenylamino)-4-methyl-thiazol-5-yl]-3-phenyl-3H-quinazolin-4-one]	4%	-20%	-9%	
	Cc1nc(Nc2ccc(Cl)cc2)sc1-c1nc2ccccc2c(=O)n1-c1ccccc1Cl [Example 230, 2-[2-(4-Chlorophenylamino)-4-methyl-thiazol-5-yl]-3-(2-chloro-phenyl)-3H-quinazolin-4-one]	58%	21%	60%	
	CC(=O)c1ccc(-n2c(-c3sc(Nc4ccc(Cl)cc4)nc3C)nc3ccccc3c2=O)cc1 [Example 263, 2-[2-(4-Chlorophenylamino)-4-methyl-thiazol-5-yl]-3-(4-acetyl-phenyl)-3H-quinazolin-4-one]	13%	2%	0%	
	COc1cccc(-n2c(-c3sc(Nc4ccccc4)nc3-c3ccccc3)nc3ccccc3c2=O)c1 [Example 213, 3-(3-methoxyphenyl)-2-(4-phenyl-2-phenylamino-thiazol-5-yl)-3H-quinazolin-4-one]	38%	33%	35%	
	2-[2-(1-Furan-2-yl-vinylamino)-4-phenyl-thiazol-5-yl]-3-phenyl-3H-quinazolin-4-one [Example 164]				% Protection (carageenan-induced edema): 66%; AP-1 inhibition @ 1 uM (AP-1): 53; NFkB inhibition @ 1 uM (NF-κB; [1]): 2
	Cc1cccc(-n2c(-c3sc(Nc4ccc(Cl)cc4)nc3-c3ccccc3)nc3ccccc3c2=O)c1 [Example 189, 2-[2-(4-Chloro-phenylamino)-4-phenyl-thiazol-5-yl]-3-m-tolyl-3H-quinazolin-4-one]	38%	83%	-4%	
